Data set [1] deals with estrogenic effect. The following applies: cited from earlier work.
For data set [2] the following is noted: cited from earlier work.
Data set [3] relates to cattle. The following applies: cited from earlier work.
Data set [4] has as its system estrogen receptor. The following applies: cited from earlier work.
Data set [5] has as its system mammalian animals, in particular pigs. The following applies: cited from earlier work.
Data set [6] relates to polypeptide (hydrolase / zonase) with sequence ID no. 1, C-terminal 6×His tag. Kind of data set: Enzyme kinetics of ZEN hydrolysis to HZEN, photometric at 315 nm. Type of data set: biochemical. The note with it: ZEN substrate, 50 mM Tris-HCl pH 8.2, 32° C. The procedure:
The soluble cell lysate in the case of E. coli and/or the culture supernatant in the case of P. pastoris was/were used for determination of the catalytic properties of the polypeptides. To determine the KM value, vmax, kcat and the specific activity, the polypeptides were selectively enriched chromatographically by standard methods over nickel-Sepharose columns. The determination of the protein concentration was performed by means of standard methods, either being calculated by the BCA method (Pierce BCA Protein Assay KitProd #23225) or preferably photometrically with the specific extinction coefficients for the respective proteins that are available online with the ProtParam program at http://web.expasy.org/protparam (Gasteiger E. et al.; Protein Identification and Analysis Tools on the ExPASy Server, in John M. Walker (ed): The Proteomics Protocols Handbook, Humana Press, 2005, pp. 571-607).
The preparation, enrichment and purification of the polypeptides and/or variants thereof were performed as described in example 1. Degradation of ZEN to HZEN was measured on the basis of the reduction in absorption at the wavelength of 315 nm. […] The extinction coefficients have a strong dependence on pH and therefore the activity must always be measured precisely at the same pH and preferably also in the same matrix. The measurements were performed in a 50 mM Tris-HCl pH=8.2 buffer solution in quartz cuvettes in a wavelength range of 200 to 2500 nm in a UV-VIS photometer (Hitachi U-2001) at 32° C.
A 2.08 mM ZEN solution (40 vol % ACN+60 vol % H2O) was used as the ZEN substrate stock solution. To prepare this solution, ZEN in crystalline form (Biopure Standard from Romer Labs, article no. 001109, purity at least 98%) was weighed and dissolved accordingly. The ZEN substrate dilutions (0.79 μM, 1.57 μM, 2.36 μM, 3.14 μM, 4.71 μM, 6.28 μM, 7.85 μM, 9.42 μM, 10.99 μM, 12.56 μM, 14.13 μM, 15.71 μM, 17.28 μM and 18.85 μM) were prepared with 50 mM Tris-HCl pH=8.2. The polypeptide solutions were diluted to a final concentration of approximately 70 ng/mL using 50 mM Tris-HCl buffer pH=8.2. The ZEN substrate dilutions were preheated to 32° C. in a water bath.
100 μL portions of the respective ZEN substrate dilution were mixed with 0.2 μL polypeptide solution, and the absorption was measured for 5 minutes, whereupon each combination of polypeptide solution and ZEN substrate dilution was measured at least twice.
Taking into account the extinction coefficients of ZEN and HZEN, the reaction rate was calculated for each substance concentration on the basis of the slope in the absorption over time.
The designations “KM value” or “Michaelis-Menten constant” relate to a parameter for describing the enzymatic affinity of the units μM or mM, which are calculated with the help of the linear Hanes plots according to H. Bisswang (2002, Enzyme Kinetics, ISBN 3-527-30343-X, page 19), wherein the function “enzyme kinetics, single substrate” in the SigmaPlot 12.0 program is preferably used for this purpose. The designations “catalytic constant of the enzyme reaction” or “kcat value” relate to a parameter for describing the conversion rate of a polypeptide and/or enzyme, which is given in s^−1 and is preferably calculated with the help of the “enzyme kinetic, single substrate” function of the SigmaPlot 12.0 program. The “maximum enzyme rate” or “vmax value” is given in units of μM/s or mM/s and is determined with the help of the linear Hanes plot by analogy with the KM value, wherein the function “enzyme kinetic, single substrate” of the SigmaPlot 12.0 program is preferably used for this.
The raw data for determination of the enzyme parameters KM, vmax, kcat and the specific activity are given below for the polypeptide having the sequence ID no. 1.

In data set [7] the test system is pigs. The note with it: cited from earlier work.
The conditions of data set [8]: relatively low acute toxicity; cited from earlier work.

The values that follow come from patent publication US11998028B2, “Polypeptide for hydrolytic cleavage of zearalenone and/or zearalenone derivatives, isolated polynucleotide thereof as well as a polypeptide containing an additive, use of same as well as a process” (priority 2013, dated 2024).

Take `C[C@H]1CCC[C@H](O)CCC/C=C/c2cc(O)cc(O)c2C(=O)O1` [α-ZEL, (2E,7R,11S)-7,15,17-trihydroxy-11-methyl-12-oxabicyclo[12.4.0]-octadeca-1(18),2,14,16-tetraen-13-one]: the “estrogenic effect compared with ZEN” value in data set [1] is reported as “much stronger estrogenic effect than ZEN”.

In the case of `C[C@H]1CCCC(=O)CCCCCc2cc(O)cc(O)c2C(=O)O1` [ZAN, (11S)-15,17-dihydroxy-11-methyl-12-oxabicyclo-[12.4.0]octadeca-1(18),14,16-triene-7,13-dione], the “estrogenic effect compared with ZEN” value in data set [1] is recorded as “much stronger estrogenic effect than ZEN”.

One may read the Km as the concentration of substrate that gives half-maximal velocity. Broadly, the Vmax is the top rate of the reaction or transport when substrate is in excess. A word on the kcat: it is the maximal rate divided by the concentration of active sites. On to `C[C@H]1CCCC(=O)CCC/C=C/c2cc(O)cc(O)c2C(=O)O1` [ZEN, (2E,11S)-15,17-dihydroxy-11-methyl-12-oxabicyclo[12.4.0]octadeca-1(18),2,14,16-tetraene-7,13-dione], for which the “absorption through the mucous membranes” value in data set [2] (in particular gastric mucosa and oral mucosa) is given as “absorbed rapidly”. Further, the “time after oral administration at which ZEN can be detected in blood” value in data set [2] (oral administration) is 30 min. The “ZEN concentration blamed for spontaneous abortions” value in data set [3] is recorded as 12 ppm. Moreover, the “binding to the estrogen receptor” value in data set [4] was “binds to the estrogen receptor”. For the same molecule, the “ZEN concentration in feed resulting in developmental disorders” value in data set [5] was “more than 0.5 ppm”. Also, the Km in data set [6] (Average) was found to be 0.204 µM; in data set [6] (Measurement 1), 0.217 µM; in data set [6] (Measurement 2), 0.19 µM. Further, the figures for the Vmax in data set [6] (Average), in data set [6] (Measurement 1) and in data set [6] (Measurement 2) were 0.009343 µM/s, 0.00993 µM/s and 0.008756 µM/s, respectively. Moreover, the figures for the kcat in data set [6] (Average), in data set [6] (Measurement 1) and in data set [6] (Measurement 2) were 5.12 s⁻¹, 5.44 s⁻¹ and 4.79 s⁻¹, respectively. Also, the “ZEN concentration that can result in hyperestrogenicity” value in data set [7] is given as “more than 1.5 ppm”. Also, the “oral LD50” value in data set [8] was “up to 20,000 mg/kg body weight”.

For the molecule `C[C@H]1CCC[C@H](O)CCCCCc2cc(O)cc(O)c2C(=O)O1` [α-ZAL, (7R,11S)-7,15,17-trihydroxy-11-methyl-12-oxabicyclo[12.4.0]octa-deca-1(18),14,16-trien-13-one], the “estrogenic effect compared with ZEN” value in data set [1] was “much stronger estrogenic effect than ZEN”.
